From patent US10723723B2, “Substituted bicycle heterocyclic derivatives useful as ROMK channel inhibitors” (BRISTOL-MYERS SQUIBB COMPANY, priority 2016, dated 2020)
pIC50: −log10 of the molar value.

target: hROMK (human Kir1.1) (Homo sapiens (Human), UniProt P48048); assay: Thallium Flux Assay (FluxOR, CHO T-Rex hROMK stable cell line); format: cell-based; settings: CHO T-Rex hROMK cells, 10-point concentration response curve; read-out: Human ROMK TH Flux IC50
Sequence (P48048 whole entry): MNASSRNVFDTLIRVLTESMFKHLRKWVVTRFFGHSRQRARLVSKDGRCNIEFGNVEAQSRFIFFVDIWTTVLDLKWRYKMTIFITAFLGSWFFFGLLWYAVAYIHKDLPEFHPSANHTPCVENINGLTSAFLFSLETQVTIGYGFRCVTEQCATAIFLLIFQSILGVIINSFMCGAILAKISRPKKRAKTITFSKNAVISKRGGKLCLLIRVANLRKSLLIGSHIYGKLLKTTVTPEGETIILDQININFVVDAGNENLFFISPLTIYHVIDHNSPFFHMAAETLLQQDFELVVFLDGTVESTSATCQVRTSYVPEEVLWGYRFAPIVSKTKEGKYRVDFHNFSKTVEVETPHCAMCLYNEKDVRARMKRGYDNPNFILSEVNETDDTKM

Structure (SMILES) | pIC50
Cc1c([C@@H](O)CNCc2ccc(-c3ccc(=O)n(C)n3)nc2)ccc2c1COC2=O [Example 122, (R)-6-(5-(((2-hydroxy-2-(4-methyl-1-oxo-1,3-dihydroisobenzofuran-5-yl)ethyl)amino)methyl)pyridin-2-yl)-2-methylpyridazin-3(2H)-one] | 6.77
Cc1cc(C#N)cnc1-n1cc(CNC[C@H](O)c2ccc3c(c2C)COC3=O)cn1 [Example 78, (R)-6-(4-(((2-hydroxy-2-(4-methyl-1-oxo-1,3-dihydroisobenzofuran-5-yl)ethyl)amino)methyl)-1H-pyrazol-1-yl)-5-methylnicotinonitrile] | 6.36
Cc1c(C(O)CN(Cc2ccc(-c3ccc(C#N)c(F)c3)cc2)Cc2cccnc2)ccc2c1COC2=O (stereo not drawn) [Example 11-I, 3-fluoro-4′-(((2-hydroxy-2-(4-methyl-1-oxo-1,3-dihydroisobenzofuran-5-yl)ethyl)(pyridin-3-ylmethyl)amino)methyl)-[1,1′-biphenyl]-4-carbonitrile] | 5.43
Cc1c(C(O)CNCc2ccc(-c3ccc(C#N)c(F)c3)cc2)ccc2c1COC2=O (single isomer, unassigned) [Example 10-II, 3-fluoro-4′-(((2-hydroxy-2-(4-methyl-1-oxo-1,3-dihydroisobenzofuran-5-yl)ethyl)amino)methyl)-[1,1′-biphenyl]-4-carbonitrile] | 6.85
Cc1c(C(O)CN(C)Cc2ccc(-n3ccc4cc(C#N)ccc43)cc2)ccc2c1COC2=O (single isomer, unassigned) [Example 30-II, 1-(4-(((2-hydroxy-2-(4-methyl-1-oxo-1,3-dihydroisobenzofuran-5-yl)ethyl)(methyl)amino)methyl)phenyl)-1H-indole-5-carbonitrile] | 5.92
CCn1c(=O)oc2ccc(-n3cc(CNC[C@H](O)c4ccc5c(c4C)COC5=O)cn3)cc21 [Example 125, (R)-3-ethyl-5-(4-(((2-hydroxy-2-(4-methyl-1-oxo-1,3-dihydroisobenzofuran-5-yl)ethyl)amino)methyl)-1H-pyrazol-1-yl)benzo[d]oxazol-2(3H)-one] | 6.41
Cc1cn(-c2cc(C)c(CNC[C@H](O)c3ccc4c(c3C)COC4=O)cn2)cn1 [Example 76, (R)-5-(1-hydroxy-2-(((4-methyl-6-(4-methyl-1H-imidazol-1-yl)pyridin-3-yl)methyl)amino)ethyl)-4-methylisobenzofuran-1(3H)-one] | 7.09
CN(Cc1ccc(-c2ccc(C#N)c(F)c2)nc1)CC(O)c1ccc2oc(=O)n(C)c2c1 (single isomer, unassigned) [Example 24-II, 2-fluoro-4-(5-(((2-hydroxy-2-(3-methyl-2-oxo-2,3-dihydrobenzo[d]oxazol-5-yl)ethyl)(methyl)amino)methyl)pyridin-2-yl)benzonitrile] | 5.62
Cc1cc(-n2cc(CNCC(O)c3ccc4c(c3C)C(C)OC4=O)cn2)ncc1C#N (single isomer, unassigned) [Example 172-I, 6-(4-(((2-(3,4-dimethyl-1-oxo-1,3-dihydroisobenzofuran-5-yl)-2-hydroxyethyl)amino)meth-yl)-1H-pyrazol-1-yl)-4-methylnicotinonitrile] | 6.07
Cc1c([C@@H](O)CNCc2cnn(-c3cccc(N4CCOC4=O)c3)c2)ccc2c1COC2=O [Example 158, (R)-3-(3-(4-(((2-hydroxy-2-(4-methyl-1-oxo-1,3-dihydroisobenzofuran-5-yl)ethyl)amino)methyl)-1H-pyrazol-1-yl)phenyl)oxazolidin-2-one] | 6.41
Cc1c(C(O)CN(C)Cc2ccc(-n3ccc4c(C#N)cccc43)nc2)ccc2c1COC2=O (single isomer, unassigned) [Example 25-II, 1-(5-(((2-hydroxy-2-(4-methyl-1-oxo-1,3-dihydroisobenzofuran-5-yl)ethyl)(methyl)amino)methyl)pyridin-2-yl)-1H-indole-4-carbonitrile] | 6.28
Cc1cn(-c2ccc(CNC[C@H](O)c3ccc4c(c3C)COC4=O)nn2)cn1 [Example 53, (R)-5-(1-hydroxy-2-(((6-(4-methyl-1H-imidazol-1-yl)pyridazin-3-yl)methyl)amino)ethyl)-4-methylisobenzofuran-1(3H)-one] | 6.49
Cc1cc(-n2cc(CNC[C@@H](c3ccc4c(c3C)COC4=O)N(C)S(C)(=O)=O)cn2)ncc1C#N [Example 65, (R)-N-(2-(((1-(5-cyano-4-methylpyridin-2-yl)-1H-pyrazol-4-yl)methyl)amino)-1-(4-methyl-1-oxo-1,3-dihydroisobenzofuran-5-yl)ethyl)-N-methylmethanesulfonamide] | 7.42
Cc1c([C@@H](O)CNCc2cnn(-c3cnccn3)c2)ccc2c1COC2=O [Example 165, (R)-5-(1-hydroxy-2-(((1-(pyrazin-2-yl)-1H-pyrazol-4-yl)methyl)amino)ethyl)-4-methylisobenzofuran-1(3H)-one] | 6.33
Cc1cc(-n2cc(CNC[C@H](NC(=O)CO)c3ccc4c(c3C)COC4=O)cn2)ncc1C#N [Example 63, (R)-N-(2-(((1-(5-cyano-4-methylpyridin-2-yl)-1H-pyrazol-4-yl)methyl)amino)-1-(4-methyl-1-oxo-1,3-dihydroisobenzofuran-5-yl)ethyl)-2-hydroxyacetamide] | 6.89
CNC(=O)O[C@@H](CNCc1cnn(-c2cc(C)c(C#N)cn2)c1)c1ccc2c(c1C)COC2=O [Example 144, (R)-2-(((1-(5-cyano-4-methylpyridin-2-yl)-1H-pyrazol-4-yl)methyl)amino)-1-(4-methyl-1-oxo-1,3-dihydroisobenzofuran-5-yl)ethyl methylcarbamate] | 6.85
Cc1cc(-n2cc(CNC[C@H](NS(=O)(=O)C3CC3)c3ccc4c(c3C)COC4=O)cn2)ncc1C#N [Example 62, (R)-N-(2-(((1-(5-cyano-4-methylpyridin-2-yl)-1H-pyrazol-4-yl)methyl)amino)-1-(4-methyl-1-oxo-1,3-dihydroisobenzofuran-5-yl)ethyl)cyclopropanesulfon-amide] | 6.41
Cc1c(C(O)CN(C)Cc2ccc(-n3cc(C#N)c4ccccc43)cc2)ccc2c1COC2=O (single isomer, unassigned) [Example 12-II, 1-(4-(((2-hydroxy-2-(4-methyl-1-oxo-1,3-dihydroisobenzofuran-5-yl)ethyl)(methyl)amino)methyl)phenyl)-1H-indole-3-carbonitrile] | 6.28
Cc1c(C(CO)N(C)Cc2cnc(-n3ncc4c(C#N)cccc43)nc2)ccc2c1COC2=O (stereo not drawn) [Example 2-I] | 5.72
Cc1c([C@@H](O)CNCc2ccc(-c3cnn(C)c3)nc2)ccc2c1COC2=O [Example 124, (R)-5-(1-hydroxy-2-(((6-(1-methyl-1H-pyrazol-4-yl)pyridin-3-y)methyl)amino)ethyl)-4-methylisobenzofuran-1(3H)-one] | 6.59
Cc1c([C@@H](O)CNCc2cnn(-c3ccc(-c4noc(=O)n4C)cn3)c2)ccc2c1COC2=O [Example 171, (R)-3-(6-(4-(((2-hydroxy-2-(4-methyl-1-oxo-1,3-dihydroisobenzofuran-5-yl)ethyl)amino)methyl)-1H-pyrazol-1-yl)pyridin-3-yl)-4-methyl-1,2,4-oxadiazol-5(4H)-one] | 6.00
Cc1c([C@@H](O)CNCc2c[nH]c(-c3ccc4oc(=O)n(C)c4c3)n2)ccc2c1COC2=O [Example 126, (R)-5-(4-(((2-hydroxy-2-(4-methyl-1-oxo-1,3-dihydroisobenzofuran-5-yl)ethyl)amino)methyl)-1H-imidazol-2-yl)-3-methylbenzo[d]oxazol-2(3H)-one] | 6.24
Cc1cc(-c2nc(CNC[C@H](O)c3ccc4c(c3C)COC4=O)cn2C)ncc1C#N [Example 86, (R)-6-(4-(((2-hydroxy-2-(4-methyl-1-oxo-1,3-dihydroisobenzofuran-5-yl)ethyl)amino)methyl)-1-methyl-1H-imidazol-2-yl)-4-methylnicotinonitrile] | 6.37
Cc1cc(-n2cc(CNCC(C)(O)c3ccc4c(c3C)COC4=O)cn2)ncc1C#N (single isomer, unassigned) [Example 170-I, 6-(4-(((2-hydroxy-2-(4-methyl-1-oxo-1,3-dihydroisobenzofuran-5-yl)propyl)amino)methyl)-1H-pyrazol-1-yl)-4-methylnicotinonitrile] | 6.80
Cc1cc(-n2cc(CCNC(=O)Cc3ccc4c(c3C)COC4=O)cn2)ncc1C#N [Example 38, N-(2-(1-(5-cyano-4-methylpyridin-2-yl)-1H-pyrazol-4-yl)ethyl)-2-(4-methyl-1-oxo-1,3-dihydroisobenzofuran-5-yl)acetamide] | 6.47
Cc1cc(-c2ccc(CN(C)CC(O)c3ccc4c(c3C)COC4=O)cc2)ncc1C#N (single isomer, unassigned) [Example 31-II, 6-(4-(((2-hydroxy-2-(4-methyl-1-oxo-1,3-dihydroisobenzofuran-5-yl)ethyl)(methyl)amino)methyl)phenyl)-4-methylnicotinonitrile] | 6.43
COc1cc(-n2cnc(C)c2)ncc1CNC[C@H](O)c1ccc2c(c1C)COC2=O [Example 89, (R)-5-(1-hydroxy-2-(((4-methoxy-6-(4-methyl-1H-imidazol-1-yl)pyridin-3-yl)methyl)amino)ethyl)-4-methylisobenzofuran-1(3H)-one] | 7.04
Cc1cn(-c2cnc(CNC[C@H](O)c3ccc4c(c3C)COC4=O)cn2)cn1 [Example 141, (R)-5-(1-hydroxy-2-(((5-(4-methyl-1H-imidazol-1-yl)pyrazin-2-yl)methyl)amino)ethyl)-4-methylisobenzofuran-1(3H)-one] | 6.54
Cc1c([C@@H](O)CNC(C)(C)c2cnn(-c3ccc4oc(=O)n(C)c4c3)c2)ccc2c1COC2=O [Example 37, (R)-5-(4-(2-((2-hydroxy-2-(4-methyl-1-oxo-1,3-dihydroisobenzofuran-5-yl)ethyl)amino)propan-2-yl)-1H-pyrazol-1-yl)-3-methylbenzo[d]oxazol-2(3H)-one] | 6.03
Cc1ncn(-c2ncc(CNC[C@H](O)c3ccc4c(c3C)COC4=O)cn2)c1C(F)F [Example 90, (R)-5-(2-(((2-(5-(difluoromethyl)-4-methyl-1H-imidazol-1-yl)pyrimidin-5-yl)methyl)amino)-1-hydroxyethyl)-4-methylisobenzofuran-1(3H)-one] | 6.64
